From patent EP0288048A2, “Benzo- and thieno-3,4-dihydropyridine derivates, processes for their preparation, and medicaments containing them” (BOEHRINGER INGELHEIM KG, priority 1987, dated 1988)

Tested on: myocardiale Radiocalciumaufnahme
Assay: Cardioprotective effect in conscious rats: inhibition of isoprenaline-induced myocardial radiocalcium uptake (method of Arndts)
Type: in vivo, Ratten
Parameters: unit not given here
Details: oral administration (perorale Wirkstoffabgabe), dose inhibiting by 50 % the myocardial radiocalcium uptake caused by 30 mg/kg s.c. Isoprenalin
From the text: Insbesondere weisen diese Substanzen eine deutliche cardioprotektive Wirkung auf, die wie folgt bestimmt wurde: • Bekanntlich ist der myocardiale Ca(2+)-Gehalt ein Maß für die hypoxische bzw. durch toxische Catecholamindosen hervorgerufene Herzschädigung (Higgins et al., Mol. Cell. Cardiol. 10, 427-438, 1984; Nakanishi et al., Am. J. Physiol. 242, 437-449, 1982; Fleckenstein, A. Vorträge der Erlanger Physiol. Tagung 1970, Edit. Keidel, Springer Verlag Berlin, Heidelberg, New York, 1971). Umgekehrt ist die Inhibition der hypoxischen oder Isoprenalin-bedingten myocardialen Calciumaufnahme ein Maß für die cardioprotektive Effektivität von Calciumantagonisten (Fleckenstein, s.o.), von Calmodulininhibitoren (Higgins) und anderen Pharmaka, z.B. Betaadrenolytika (Arndts, Arzneimittelforschung 25, 1279-1284, 1975). Die cardioprotektive Wirkung wurde an wachen Ratten nach subcutaner oder peroraler Wirkstoffabgabe anhand der von Arndts (s.o.) beschriebenen Methode festgestellt und die Wirkungsstärke der Testsubstanzen als Hso-Wert angegeben. Dieser Wert entspricht der Dosis, die die durch eine Gabe von 30 mg/kg s.c. Isoprenalin bedingte myocardiale Radiocalciumaufnahme zu 50 % hemmt.

| Compound | H50-Wert |
| --- | --- |
| COc1cc2c(cc1OC)C(CC(=O)NN(C)C)=NCC2 [B] | 2.26 |
| CCCCC(C(=O)NCC(C)C)C1=NCCc2cc(OC)c(OC)cc21 (stereo not drawn) [C, α-Isobutylaminocarbonyl-1-pentyl-6,7-dimethoxy-3,4-dihydro-isochinolin] | 1.34 |
| CCCCC(C(=O)NC(C)C)C1=NCCc2cc(OC)c(OC)cc21 (stereo not drawn) [D] | 2.25 |
| CCCCC(C(=O)NCCc1ccccn1)C1=NCCc2cc(OC)c(OC)cc21 (stereo not drawn) [E] | 2.29 |
| CCCCC(C(=O)NC)C1=NCCc2cc(OC)c(OC)cc21 (stereo not drawn) [F] | 1.41 |
| CCCCC(C(=O)NCCOC)C1=NCCc2cc(OC)c(OC)cc21 (stereo not drawn) [G] | 2.23 |
| COc1cc2c(cc1OC)C1(CCCC1)CNC2=CC1=NCC2(CCCC2)c2cc(OC)c(OC)cc21 [Verbindung A] | 1.25 |
| CCCCC(C(=O)NCC(C)O)C1=NCCc2cc(OC)c(OC)cc21 (stereo not drawn) [Verbindung H] | 2.15 |

Tested on: isolierten Rattenherzen
Assay: Cardioprotective effect on isolated rat hearts under ischaemia followed by reperfusion (duration of arrhythmia phase)
Parameters: species or system Ratten
Details: konz. 3,3 µg/ml; isolated rat heart, one hour ischaemia (flow 0.15 ml/min), then reperfusion
From the text: Wird ein längere Zeit unter ischämischen Bedingungen gehaltenes, isoliertes Herz wieder normal perfundiert, so tritt keine sofortige Normalisierung der Herzfunktion ein. Es findet sich vielmehr eine vorübergehende Periode, die durch Kontraktur und Arrhytmien gekennzeichnet ist. Diese Arrhythmiephase ist durch Veränderungen von Funktion und Struktur der Myocardzelle mit intrazellulärer Calciumüberladung bedingt (Hess u. Manson, J. Mol. Cell. Cardiol. 16, 969, 1984). Cardioprotektiv wirksame Verbindungen wie Verapamil und Diltiazem verringern die Calciumüberladung und verbessern das Kontraktionsverhalten bei Reperfusion (Watts et al. Am. J. Physiol. 238, H 909, 1980; Meno et al. Am. J. Physiol. 247, H 380, 1984). Die cardioprotektive Wirkung wurde an isolierten Rattenherzen unter Ischämie und anschließender Reperfusion untersucht. Unter Kontrollbedingungen findet sich nach einstündiger Ischämie (Fluß 0.15 ml,min) eine Periode unregelmäßiger Herztätigkeit von 10-15 Minuten. Infusion von cardioprotektiven Verbindungen bewirkt eine signifikante Verkürzung dieser Periode.

| Compound | Verkürzung der Arrhythmie-phase von 11-13 min auf |
| --- | --- |
| COc1cc2c(cc1OC)C(C(CCc1ccccc1)C(=O)NCCc1ccncc1)=NCC2 (stereo not drawn) [L] | 5,0 min |
| COc1cc2c(cc1OC)C1(CCCC1)CNC2=CC1=NCC2(CCCC2)c2cc(OC)c(OC)cc21 [Verbindung A] | 4,0 min |

Same assay, conditions: konz. 6,6 µg/ml; isolated rat heart, one hour ischaemia (flow 0.15 ml/min), then reperfusion

| Compound | Verkürzung der Arrhythmie-phase von 11-13 min auf |
| --- | --- |
| CCCCC(C(=O)NC(C)CCCC(C)C)C1=NCCc2cc(OC)c(OC)cc21 (stereo not drawn) [K] | 3,1 min |

Same assay, conditions: konz. 13,3 µg/ml; isolated rat heart, one hour ischaemia (flow 0.15 ml/min), then reperfusion

| Compound | Verkürzung der Arrhythmie-phase von 11-13 min auf |
| --- | --- |
| COc1cc2c(cc1OC)C(CC(=O)N1CCOCC1)=NCC2 [Verbindung I] | 3,5 min |
